In experiment [1] the target is 26S proteasome. The experiment is described as follows: Inhibition of trypsin-like activity of human 20S proteasome using Ac-RLR-AMC as substrate. The format is protein-complex assay.
In experiment [2] the test system is HCT-116. The experiment is described as follows: Inhibition of human HCT116 cell growth. In kind it is functional, cell-based.
Experiment [3] addresses 26S proteasome. The experiment is described as follows: Inhibition of chymotrypsin-like activity of human 20S proteasome using Suc-LLVY-AMC as substrate. The format is protein-complex assay.
Experiment [4] deals with 26S proteasome. Description: Inhibition of caspase-like activity of human 20S proteasome using Ac-nLPnLD-AMC as substrate. The format is protein-complex assay.

The IC50 is the point on the concentration scale where inhibition reaches its midpoint. Consider `CC(=O)N[C@@H](CC(=O)NCCCC(COCc1ccccc1)COCc1ccccc1)C(=O)N[C@@H](CC(C)C)B1O[C@@H]2C[C@@H]3C[C@@H](C3(C)C)[C@]2(C)O1`, for which the IC50 in experiment [1] amounted to 2700 nM; in experiment [2], 43 nM; in experiment [3] it was 4.1 nM; in experiment [4], 120 nM.
As for `CC[C@H](C)[C@@H]1C(=O)O[C@H]1C(=O)N[C@H]1C[C@H]1C[C@H](NC(=O)[C@H](C)N)C(=O)O` [BELACTOSIN A], half-maximal inhibition in experiment [3] (IC50) was put at 1400 nM.
As to `CC(C)C[C@H](NC(=O)[C@H](CC(=O)NCCC(COCc1ccccc1)COCc1ccccc1)NC(=O)c1ccccc1)B1O[C@@H]2C[C@@H]3C[C@@H](C3(C)C)[C@]2(C)O1`, the IC50 was 2700 nM in experiment [1], 60 nM in experiment [2], 7.8 nM in experiment [3] and 130 nM in experiment [4].
The corresponding values for `CC(=O)N[C@@H](CC(=O)NCC(COCc1ccccc1)COCc1ccccc1)C(=O)N[C@@H](CC(C)C)B1O[C@@H]2C[C@@H]3C[C@@H](C3(C)C)[C@]2(C)O1` are 1100 nM, 45.4 nM, 3.9 nM and 140 nM.
As to `CC(=O)N[C@@H](CCC(=O)NCC(COCc1ccccc1)COCc1ccccc1)C(=O)N[C@@H](CC(C)C)B1O[C@@H]2C[C@@H]3C[C@@H](C3(C)C)[C@]2(C)O1`, the 50% inhibitory concentration (IC50) in experiment [1] was 2400 nM; in experiment [2] it was 63.6 nM; in experiment [3], 5.1 nM; in experiment [4], 75 nM.
The corresponding values for `CNC(=O)C[C@H](NC(C)=O)C(=O)N[C@@H](CC(C)C)B1O[C@@H]2C[C@@H]3C[C@@H](C3(C)C)[C@]2(C)O1` are over 10000 nM, 2500 nM, 54 nM and 500 nM.
Regarding `CC(C)C[C@H](NC(=O)[C@H](CC(=O)NCCC(COCc1ccccc1)COCc1ccccc1)NC(=O)c1cccc(-c2ccccc2)n1)B1O[C@@H]2C[C@@H]3C[C@@H](C3(C)C)[C@]2(C)O1`, the IC50 in experiment [1] was over 10000 nM; in experiment [2], 260 nM; in experiment [3] it was 7.5 nM; in experiment [4] it was 1000 nM.
`CC(=O)N[C@@H](CCC(=O)NCCCC(COCc1ccccc1)COCc1ccccc1)C(=O)N[C@@H](CC(C)C)B1O[C@@H]2C[C@@H]3C[C@@H](C3(C)C)[C@]2(C)O1`: the IC50 in experiment [1] was found to be 3000 nM; in experiment [2] it was 67.2 nM; in experiment [3], 4.1 nM; in experiment [4] it was 46 nM.
Take `CC(=O)N[C@@H](CC(=O)NCC(COCc1ccccc1)COCc1ccccc1)C(=O)N[C@@H](CC(C)C)B(O)O`: the IC50 in experiment [2] worked out at 79.6 nM; in experiment [3], 7.7 nM.
Regarding `CC[C@H](C)[C@@H]1C(=O)O[C@H]1C(=O)N[C@H]1C[C@@H]1C[C@@H](CCc1ccccc1)NC(=O)[C@H](C)NC(=O)OCc1ccccc1`, the IC50 in experiment [2] is 1820 nM; in experiment [3] it was 5.7 nM.
The corresponding values for `CC[C@H](C)[C@@H]1C(=O)O[C@H]1C(=O)NCCC(COCc1ccccc1)COCc1ccccc1` are over 10000 nM and 29 nM.
On to `CC(C)C[C@H](NC(=O)[C@H](CC(=O)NCCC(COCc1ccccc1)COCc1ccccc1)NC(=O)c1cnccn1)B1O[C@@H]2C[C@@H]3C[C@@H](C3(C)C)[C@]2(C)O1`, for which the IC50 in experiment [1] turned out to be 3300 nM; in experiment [2], 45 nM; in experiment [3], 7.1 nM; in experiment [4], 210 nM.
The corresponding values for `CC(=O)N[C@@H](CCC(=O)NCCC(COCc1ccccc1)COCc1ccccc1)C(=O)N[C@@H](CC(C)C)B1O[C@@H]2C[C@@H]3C[C@@H](C3(C)C)[C@]2(C)O1` are 2500 nM, 110 nM, 5.7 nM and 76 nM.
